The text below walks through data of US20250345295A1, “LMK235 COMPOSITIONS AND METHODS” (UNM Rainforest Innovations, priority 2024, published 2025).

What is called pIC50 is the IC50 on a negative log10 scale, so that one unit is a factor of ten.

pIC50: −log10 of the molar value. “Also recorded” adds a separate entry of the source.

The target in experiment [1] is HDAC 5 (Homo sapiens, UniProt Q9UQL6). The note with it: cited from earlier work.
The test system of experiment [2] is small (<30 μm) TG neurons from FRICT-ION mice. The experiment can be described thus: Whole-cell patch-clamp electrophysiology, TG neurons from FRICT-ION mice. The experiment is classed as cell-based, mouse. The note with it: 13 μM for one hour vs 0.1% DMSO. Here is the method:
The excitability of TG neurons is directly linked to the pathophysiology of trigeminal neuropathic pain. In order to determine the effect of LMK235 on TG neurons from FRICT-ION mice, whole-cell patch-clamp electrophysiological recordings were made from small (<30 μm) TG neurons in the presence of LMK235 (13 μM) or vehicle (0.1% DMSO). TG neurons were obtained from FRICT-ION mice at three weeks post injury or naïve mice. The TG neurons were treated for one hour in vitro with either LMK235 or vehicle control prior to recording (FIG. 7).
Neurons with a diameter of <30 μm were identified by infrared differential interference contrast (IR-DIC) imaging with a microscope connected to an Olympus digital camera. Current clamp recordings were performed using a Molecular Devices Multiclamp 700B (Scientifica, UK). Signals were filtered at 5 KHz, acquired at 50 KHz using a Molecular Devices 1550B converter (Scientifica, UK) and recorded using Clampex 11 software (Molecular Devices, Scientifica, UK). Electrodes were pulled with a Zeitz puller (Werner Zeitz, Martinsreid, Germany) from borosilicate thick glass (GC150F, Sutter Instruments). Electrode resistance was 5-8 MΩ. Bridge balance was applied to all recordings. Intracellular solution contained (in mM) 125 K-gluconate, 6 KCl, 10 HEPES, 0.1 EGTA, 2 Mg-ATP, pH 7.3 with KOH, and osmolarity of 290-310 mOsm. Artificial cerebrospinal fluid (aCSF) contained (in mM) 113 NaCl, 3 KCl, 25 NaHCO3, 1 NaH2PO4, 2 CaCl2), 2 MgCl2, and 11-glucose. For whole-cell current clamp recordings, to evaluate the basic input-output action potential frequency response to hyperpolarization and depolarization, DC current was injected from 0 pA to +200 pA in 10-pA increments for a duration of 500 milliseconds at the cell's intrinsic resting membrane potential. Data acquisition was sampled at 20 kHz and filtered at 2.4 kHz. Recordings with a series resistance greater than 20 MΩ were discarded, and series resistance was compensated to 70%. In response to a −100 pA hyperpolarizing pulse with 500 millisecond duration, voltage sag amplitude was measured. Sag ratio was calculated using the following equation as described previously (Fan et al., Front Cell Neurosci 2016 Mar. 24; 10:74):
where Vpeak is the maximum voltage deflection and Vss is the steady state voltage at the end of the hyperpolarizing pulse.
Male mice were euthanized three weeks after inducing the FRICT-ION model. The TG were dissected, minced, and dissociated in an enzymatic combination containing sterile, calcium-free, and magnesium-free HBSS (Cat #14170112, Gibco), papain suspension (32.7 U/mgP, Cat #LS003126; Worthington, Lakewood, NJ), L-Cysteine (Cat #C7352-25g, Sigma), and saturated bicarbonate (Cat #S5761-500g, Sigma) solution. […]
On the technique in general: Patch clamp records ionic current or voltage across a cell membrane.

HDAC 5, sequence (Q9UQL6 whole entry, species assumed): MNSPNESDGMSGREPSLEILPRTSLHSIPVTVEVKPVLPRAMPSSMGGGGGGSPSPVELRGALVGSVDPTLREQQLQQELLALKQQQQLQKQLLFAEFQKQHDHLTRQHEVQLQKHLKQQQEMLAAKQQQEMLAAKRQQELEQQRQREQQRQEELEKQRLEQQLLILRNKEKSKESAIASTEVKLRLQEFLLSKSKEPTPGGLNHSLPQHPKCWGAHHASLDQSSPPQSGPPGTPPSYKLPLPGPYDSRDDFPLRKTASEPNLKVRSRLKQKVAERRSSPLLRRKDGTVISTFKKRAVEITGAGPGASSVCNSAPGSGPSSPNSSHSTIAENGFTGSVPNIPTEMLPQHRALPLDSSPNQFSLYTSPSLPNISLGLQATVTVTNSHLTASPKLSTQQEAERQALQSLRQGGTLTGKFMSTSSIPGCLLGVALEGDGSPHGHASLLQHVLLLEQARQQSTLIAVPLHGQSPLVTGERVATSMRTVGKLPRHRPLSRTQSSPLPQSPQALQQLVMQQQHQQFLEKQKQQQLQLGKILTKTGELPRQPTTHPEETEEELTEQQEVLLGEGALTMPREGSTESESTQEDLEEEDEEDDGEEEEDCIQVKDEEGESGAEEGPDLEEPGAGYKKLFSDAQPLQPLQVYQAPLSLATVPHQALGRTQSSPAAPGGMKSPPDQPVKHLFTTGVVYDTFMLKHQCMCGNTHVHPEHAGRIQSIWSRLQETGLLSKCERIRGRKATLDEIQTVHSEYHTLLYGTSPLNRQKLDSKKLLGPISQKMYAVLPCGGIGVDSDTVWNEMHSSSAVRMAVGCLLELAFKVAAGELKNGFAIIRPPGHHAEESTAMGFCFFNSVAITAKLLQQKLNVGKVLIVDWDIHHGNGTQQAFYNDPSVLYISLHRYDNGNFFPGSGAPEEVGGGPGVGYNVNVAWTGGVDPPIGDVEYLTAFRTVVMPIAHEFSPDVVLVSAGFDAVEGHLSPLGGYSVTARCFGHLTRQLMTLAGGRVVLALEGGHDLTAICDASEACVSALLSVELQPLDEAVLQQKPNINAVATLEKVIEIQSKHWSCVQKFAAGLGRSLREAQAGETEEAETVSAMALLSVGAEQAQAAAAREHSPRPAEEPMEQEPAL

For the compound `Cc1cc(C)cc(C(=O)NOCCCCCC(=O)NO)c1` [LMK235, N-[[6-(Hydroxyamino)-6-oxohexyl]oxy]-3,5-dimethyl-benzamide], the pIC50 in experiment [1] was 8.40. For the same compound, in experiment [2], the “distribution of high (>200 pA) vs low (<200 pA) threshold TG neurons” value was “higher proportion of high threshold (>200 pA) neurons”, the “resting membrane potential (RMP)” value is listed as “not significantly altered; also recorded: no significant differences”, the rheobase result is on record as “not significantly altered; also recorded: no significant differences” and the sag ratio result is listed as “significantly lower; also recorded: reduced”.
